Experimental data as given in patent publication US7202237B2, “Pyridylether derivatives, their preparation and use” (NeuroSearch A/S, priority 1997, dated 2007).
Structures can show the parent of a compound that is named as a salt. Where two headings read alike, the source gives them in different places.

Assays:
[1] = target: nAChRs comprised of α4 and β2 subunits (Rattus norvegicus, UniProt P09483+P12390); assay: In vitro inhibition of 3H-cytisine binding
Experimental: In Vitro Inhibition of ^3H-cytisine Binding
The predominant subtype with high affinity for nicotine is comprised of α4 and β2 subunits. nAChRs of the latter type can selectively be labelled by the nicotine agonist ^3H-cytisine.
Tissue Preparation: Preparations are performed at 0–4° C. unless otherwise indicated. […] The homogenate is centrifuged at 27,000×g for 10 min. The supernatant is discarded and the pellet is resuspended in fresh buffer and centrifuged a second time. The final pellet is resuspended in fresh buffer (35 ml per g of original tissue) and used for binding assays.
Assay: Aliquots of 500 μl homogenate are added to 25 μl of test solution and 25 μl of ^3H-cytisine (1 nM, final concentration), mixed and incubated for 90 min at 2° C. Non-specific binding is determined using (−)-nicotine (100 μM, final concentration). After incubation the samples are added 5 ml of ice-cold buffer and poured directly onto Whatman GF/C glass fibre filters under suction and immediately washed with 2×5 ml ice-cold buffer. The amount of radioactivity on the filters is determined by conventional liquid scintillation counting. Specific binding is total binding minus non-specific binding.

[2] = target: T1, neuronal nicotinic receptors (α4β2 subtype of nicotinic receptors) (Rattus norvegicus, UniProt P09483+P12390); assay: In vitro inhibition of 3H-epibatidin binding
T1 construct: The forebrain (÷cerebellum) from a male Wistar rat (150–250 g) is homogenized; from tissue; host or cells: rat forebrain (without cerebellum) membrane homogenate
T1 sequence (P09483 31-630): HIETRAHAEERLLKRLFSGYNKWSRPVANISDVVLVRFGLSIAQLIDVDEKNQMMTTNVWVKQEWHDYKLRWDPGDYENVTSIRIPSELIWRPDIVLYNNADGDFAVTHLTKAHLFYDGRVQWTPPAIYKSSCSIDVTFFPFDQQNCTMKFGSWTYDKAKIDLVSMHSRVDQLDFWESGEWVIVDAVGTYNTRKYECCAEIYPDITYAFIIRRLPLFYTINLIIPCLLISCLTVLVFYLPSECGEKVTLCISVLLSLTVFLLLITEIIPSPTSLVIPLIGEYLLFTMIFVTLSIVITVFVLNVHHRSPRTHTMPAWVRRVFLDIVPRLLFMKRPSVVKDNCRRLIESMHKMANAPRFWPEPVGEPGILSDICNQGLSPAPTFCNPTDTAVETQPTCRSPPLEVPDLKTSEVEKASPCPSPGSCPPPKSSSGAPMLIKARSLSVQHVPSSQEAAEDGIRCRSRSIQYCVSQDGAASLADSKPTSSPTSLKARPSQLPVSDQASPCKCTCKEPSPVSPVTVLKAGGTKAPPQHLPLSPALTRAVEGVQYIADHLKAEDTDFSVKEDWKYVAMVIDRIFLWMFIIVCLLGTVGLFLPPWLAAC
T1 sequence (P12390 25-500): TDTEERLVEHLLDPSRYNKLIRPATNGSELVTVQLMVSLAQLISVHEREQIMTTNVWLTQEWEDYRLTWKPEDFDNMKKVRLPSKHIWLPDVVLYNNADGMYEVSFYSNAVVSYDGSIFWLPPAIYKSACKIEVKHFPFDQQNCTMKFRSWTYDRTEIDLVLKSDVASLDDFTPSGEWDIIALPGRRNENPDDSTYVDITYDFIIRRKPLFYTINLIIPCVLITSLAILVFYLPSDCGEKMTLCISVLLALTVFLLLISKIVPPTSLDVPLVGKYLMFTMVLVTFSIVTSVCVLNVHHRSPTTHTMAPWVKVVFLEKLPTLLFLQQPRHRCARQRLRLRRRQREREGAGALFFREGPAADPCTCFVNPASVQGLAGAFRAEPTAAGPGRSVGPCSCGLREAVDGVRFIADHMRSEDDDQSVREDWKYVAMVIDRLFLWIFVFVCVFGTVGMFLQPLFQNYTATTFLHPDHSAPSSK
Experimental: In Vitro Inhibition of ^3H-epibatidin Binding
The high affinity binding site for ^3H-epibatidin is most certainly binding to the α4β2 subtype of nicotinic receptors. The identity of the low affinity site is still unknown; does it represent a second nicotinic receptor or a second site in the same receptor.
Tissue preparation: Preparations are performed at 0–4° C. unless otherwise indicated. The forebrain (÷cerebellum) from a male Wistar rat (150–250 g) is homogenized for 10–20 sec in 20 ml Tris, HCl (50 mM, pH 7.4) using an Ultra-Turrax homogenizer. The tissue suspension is centrifuged at 27,000×g for 10 min. The supernatant is discarded and the pellet is washed three times by centrifugation at 27,000×g for 10 min in 20 ml fresh buffer, and the final pellet is resuspended in fresh buffer (400 ml per g of original tissue) and used for binding assays.
Assay: Aliquots of 2.0 ml homogenate are added to 0.100 ml of test solution and 0.100 ml of ^3H-epibatidin (0.3 nM, final concentration), mixed and incubated for 60 min at room temperature. Non-specific binding is determined using (−)-nicotine (30 μM, final concentration). After incubation the samples are poured directly onto Whatman GF/C glass fibre filters (presoaked in 0.1% PEI for at least 20 min) under suction and immediately washed with 2×5 ml ice-cold buffer. The amount of radioactivity on the filters is determined by conventional liquid scintillation counting. Specific binding is total binding minus non-specific binding.

[3] = target: nAChR formed by the α7 subunit isoform (Rattus norvegicus, UniProt Q05941); assay: biochemical; assay type: binding
Sequence of nAChR formed by the α7 subunit isoform (Q05941 23-502): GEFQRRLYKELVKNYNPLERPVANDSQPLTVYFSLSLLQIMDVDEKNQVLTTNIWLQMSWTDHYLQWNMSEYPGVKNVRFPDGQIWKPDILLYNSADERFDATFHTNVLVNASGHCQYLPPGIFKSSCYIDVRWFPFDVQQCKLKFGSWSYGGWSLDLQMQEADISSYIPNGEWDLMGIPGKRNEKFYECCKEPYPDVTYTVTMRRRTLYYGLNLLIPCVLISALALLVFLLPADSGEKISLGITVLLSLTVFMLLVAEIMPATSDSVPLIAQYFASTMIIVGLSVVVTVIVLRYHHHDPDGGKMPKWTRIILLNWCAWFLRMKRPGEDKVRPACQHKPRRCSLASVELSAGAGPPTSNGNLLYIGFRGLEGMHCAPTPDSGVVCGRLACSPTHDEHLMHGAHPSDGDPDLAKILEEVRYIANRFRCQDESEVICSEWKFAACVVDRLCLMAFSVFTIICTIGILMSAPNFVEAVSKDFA

[4] = times that of morphine; cited from earlier work
[5] = rat cerebral cortex homogenate, 1 nM 3H-cytisine, read-out: 3H-cytisine IC50
[6] = rat forebrain homogenate, 0.3 nM 3H-epibatidin, read-out: 3H-epibatidin IC50

Sequence of nAChRs comprised of α4 and β2 subunits (P09483 31-630): as the sequence (P09483 31-630) above
Sequence of nAChRs comprised of α4 and β2 subunits (P12390 25-500): as the sequence (P12390 25-500) above

With `c1cncc(OC2CCCNCC2)c1` (racemic) (as salt: fumaric acid salt) [Compound 7b, (±)-4-Oxy-(3-pyridyl)-homopiperidine fumaric acid salt] as the compound, how does the melting point read?
The melting point was 117 to 119 °C.

Which results are given for `CN1CCC(Oc2cccnc2)C1` (racemic) [Compound 1a, (±)-1-Methyl-3-oxy-(3-pyridyl)-pyrrolidine]?
IC50 [1, 5]: 100 nM; IC50 [2, 6]: 700 nM; IC50 [3]: 16000 nM

With `c1cncc(OC2CCNC2)c1` (racemic) [Compound 1b, (±)-3-Oxy-(3-pyridyl)-pyrrolidine] as the compound, how does the IC50 [1] read?
The IC50 was 70 nM.

What about the IC50 [2] of the same compound?
The IC50 was 410 nM.

And the IC50 ([3]; read-out: 3H-α-bungarotoxin IC50)?
Its IC50 is over 30000 nM.

Which IC50 [1, 5] does the source give for `CN1CCCC(Oc2cccnc2)C1` (racemic) [Compound 3a, (±)-1-Methyl-3-oxy-(3-pyridyl)-piperidine] here?
Its IC50 is 190 nM.

And the IC50 [2, 6]?
Its IC50 is 720 nM.

What about the IC50 [3] of the same compound?
Its IC50 is 19000 nM.

Which IC50 [1, 5] does the source give for `c1cncc(OC2CCCNCC2)c1` (racemic) [Compound 7b, (±)-4-Oxy-(3-pyridyl)-homopiperidine fumaric acid salt] here?
Its IC50 is 60 nM.

And the IC50 [2, 6]?
The IC50 was 300 nM.

What about the IC50 [3] of the same compound?
The IC50 was 20000 nM.

With `Clc1ccc(C2CC3CCC2N3)cn1` (centres unmarked) [Epibatidine] as the compound, how does the “analgesic potency relative to morphine” value [4] read?
Its value is about 500 times.
